#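 Where inhibition never reached the appropriate level, the endpoint shown equals the highest concentration tested. Otherwise, values were interpolated linearly from a five-concentration, 48-hour dose response in 96-well plates. The concentration for full growth arrest is given as TGI.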
# Tests used:
# Assay in all cases: NCI tumour cell line growth inhibition, 48 h
# [1] = test system: IGROV1 ovarian
# [2] = test system: HS 578T breast
# [3] = test system: HCT-15 colon
# [4] = test system: EKVX NSCLC
# [5] = test system: HCT-116 colon
# [6] = test system: SF-295 CNS
# [7] = test system: SF-268 CNS
# [8] = test system: 786-0 renal
# [9] = test system: RXF 393 renal
# [10] = test system: HT29 colon
# [11] = test system: KM12 colon
# [12] = test system: MDA-MB-435
# [13] = test system: OVCAR-8 ovarian
# [14] = test system: DU-145 prostate
# [15] = test system: A549 NSCLC
# [16] = test system: UACC-257 melanoma
# [17] = test system: MCF7 breast
# [18] = test system: LOX IMVI melanoma
# [19] = test system: OVCAR-5 ovarian
# [20] = test system: K-562 leukemia
# [21] = test system: ACHN renal
# [22] = test system: NCI-H23 lung
# [23] = test system: UACC-62 melanoma
# [24] = test system: HOP-62 NSCLC
# [25] = test system: NCI/ADR-RES ovarian
# [26] = test system: HL-60(TB) leukemia
# [27] = test system: SK-MEL-5 melanoma
# [28] = test system: UO-31 renal
# [29] = test system: SK-MEL-28 melanoma
# [30] = test system: TK-10 renal
# [31] = test system: U251 CNS
# [32] = test system: SN12C renal
# [33] = test system: CCRF-CEM leukemia
# [34] = test system: OVCAR-4 ovarian
# [35] = test system: MDA-N
# [36] = test system: SK-OV-3 ovarian
# [37] = test system: HOP-92 NSCLC
# [38] = test system: NCI-H522 lung
# [39] = test system: SF-539 CNS
# [40] = test system: MALME-3M melanoma
# [41] = test system: SK-MEL-2 melanoma
# [42] = test system: SNB-19 CNS
# [43] = test system: SNB-75 CNS
# [44] = test system: MDA-MB-231 breast
# [45] = test system: NCI-H460 lung
# [46] = test system: COLO 205 colon
# [47] = test system: CAKI-1 renal
# [48] = test system: BT-549 breast
# [49] = test system: MOLT-4 leukemia
# [50] = test system: NCI-H226 lung
# [51] = test system: A498 renal
# [52] = test system: RPMI-8226 leukemia
# [53] = test system: PC-3 prostate
# [54] = test system: M14 melanoma
# [55] = test system: HCC-2998 colon
# [56] = test system: SW-620 colon
# [57] = test system: OVCAR-3 ovarian
structure (smiles),measurement,setting,value
COc1c(OC(C)C)c(OC(C)C)c2oc(=O)n3c2c1C(c1ccccc1-n1c(C)ccc1C)C=C3 (configuration not stated),TGI,[1],> 100 µM
same,TGI,[2],> 100 µM
same,TGI,[3],> 100 µM
same,TGI,[4],95.4 µM
same,TGI,[5],> 100 µM
same,TGI,[6],> 100 µM
same,TGI,[7],> 100 µM
same,TGI,[8],> 100 µM
same,TGI,[9],62.5 µM
same,TGI,[10],> 100 µM
same,TGI,[11],> 100 µM
same,TGI,[12],> 100 µM
same,TGI,[13],> 100 µM
same,TGI,[14],> 100 µM
same,TGI,[15],> 100 µM
same,TGI,[16],> 100 µM
same,TGI,[17],> 100 µM
same,TGI,[18],59 µM
same,TGI,[19],> 100 µM
same,TGI,[20],> 100 µM
same,TGI,[21],> 100 µM
same,TGI,[22],> 100 µM
same,TGI,[23],> 100 µM
same,TGI,[24],> 100 µM
same,TGI,[25],> 100 µM
same,TGI,[26],> 100 µM
same,TGI,[27],> 100 µM
same,TGI,[28],> 100 µM
same,TGI,[29],> 100 µM
same,TGI,[30],> 100 µM
same,TGI,[31],> 100 µM
same,TGI,[32],> 100 µM
same,TGI,[33],> 100 µM
same,TGI,[34],> 100 µM
same,TGI,[35],> 100 µM
same,TGI,[36],> 100 µM
same,TGI,[37],> 100 µM
same,TGI,[38],> 100 µM
same,TGI,[39],> 100 µM
same,TGI,[40],50 µM
same,TGI,[41],> 100 µM
same,TGI,[42],> 100 µM
same,TGI,[43],> 100 µM
same,TGI,[44],> 100 µM
same,TGI,[45],> 100 µM
same,TGI,[46],> 100 µM
same,TGI,[47],> 100 µM
same,TGI,[48],> 100 µM
same,TGI,[49],> 100 µM
same,TGI,[50],38.3 µM
same,TGI,[51],> 100 µM
same,TGI,[52],> 100 µM
same,TGI,[53],> 100 µM
same,TGI,[54],> 100 µM
same,TGI,[55],> 100 µM
same,TGI,[56],> 100 µM
same,TGI,[57],> 100 µM

# Reference: PubChem BioAssay (NCI)
